Results as given in US6737383B1, “Herbicidal oxadiazolidines” (priority 1999, dated 2004).

Experiments:
bedstraw = experiment: Test B pre/postemergence bedstraw; assay type: in vivo, Galium aparine
Summary of the method: (§1)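 Response is a visual 0-to-10 score relative to untreated plants, where 0 means no effect and 10 means complete control, taken twelve to sixteen days after application. Treatments went onto soil at planting and onto foliage of 1- to 4-leaf plants, using a surfactant-containing non-phytotoxic solvent.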

blackgrass = experiment: Test B pre/postemergence blackgrass; assay type: in vivo, Alopecurus myosuroides
Summary of the method: as §1

surinam grass = experiment: Test B pre/postemergence surinam grass; assay type: in vivo, Brachiaria decumbens
Summary of the method: as §1

cocklebur = experiment: Test B pre/postemergence cocklebur; assay type: in vivo, Xanthium strumarium; settings: for Cocklebur plant response rating: Postemergence; for Plant response rating, Cocklebur: Preemergence
Summary of the method: as §1

corn = experiment: Test B pre/postemergence corn; assay type: in vivo, Zea mays
Summary of the method: as §1

crabgrass = experiment: Test B pre/postemergence crabgrass; assay type: in vivo, Digitaria sanguinalis
Summary of the method: as §1

giant foxtail = experiment: Test B pre/postemergence giant foxtail; assay type: in vivo, Setaria faberii
Summary of the method: as §1

morningglory = experiment: Test B pre/postemergence morningglory; assay type: in vivo, Ipomoea hederacea
Summary of the method: as §1

pigweed = experiment: Test B pre/postemergence pigweed; assay type: in vivo, Amaranthus retroflexus
Summary of the method: as §1

rape = experiment: Test B pre/postemergence rape; assay type: in vivo, Brassica napus
Summary of the method: as §1

sugar beet = experiment: Test B pre/postemergence sugar beet; assay type: in vivo, Beta vulgaris
Summary of the method: as §1

velvetleaf = experiment: Test B pre/postemergence velvetleaf; assay type: in vivo, Abutilon theophrasti
Summary of the method: as §1

wild oat = experiment: Test B pre/postemergence wild oat; assay type: in vivo, Avena fatua
Summary of the method: as §1

rice = experiment: Test B flood test rice; assay type: in vivo, Oryza sativa
Summary of the method: (§2)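 Each value is a visual injury score relative to controls, with 10 meaning complete control and 0 no effect. Evaluation took place twelve to sixteen days after the 2-leaf-stage plants were treated and kept in the greenhouse.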

smallflower flatsedge = experiment: Test B flood test smallflower flatsedge; assay type: in vivo, Cyperus difformis
Summary of the method: as §2

bamyardgrass = experiment: Test B flood test barnyardgrass; assay type: in vivo, Echinochloa crus-galli
Summary of the method: as §2

[1] = Postemergence, Rate 62 g/ha, scale 0 to 10, 0 is no effect, 10 is complete control
[2] = Preemergence, Rate 62 g/ha, scale 0 to 10, 0 is no effect, 10 is complete control
[3] = Preemergence, Rate 125 g/ha, scale 0 to 10 (0 no effect, 10 complete control)
[4] = Preemergence, Rate 500 g/ha, scale 0 (no effect) to 10 (complete control)
[5] = Postemergence, Rate 250 g/ha, scale 0 to 10, 0 no effect, 10 complete control
[6] = Preemergence, Rate 250 g/ha, scale of 0 to 10 where 0 is no effect and 10 is complete control
[7] = Rate 125 g/ha, Postemergence, scale 0 to 10, 0 no effect, 10 complete control
[8] = Rate 500 g/ha, Postemergence, 0 to 10 scale (0 no effect, 10 complete control)
[9] = Rate 62 g/ha, scale 0 to 10, 0 is no effect, 10 is complete control
[10] = Rate 125 g/ha, Postemergence section (flood test species), scale 0 to 10, 0 no effect, 10 complete control
[11] = Rate 250 g/ha, headed Pre-emergence (flood test species), scale 0 to 10 (0 no effect, 10 complete control)
[12] = Rate 500 g/ha, Postemergence section of Table B, 0 to 10 scale (0 no effect, 10 complete control)
[13] = Rate 500 g/ha, headed Pre-emergence (flood test species), scale 0 to 10 (0 no effect, 10 complete control)
[14] = Rate 1000 g/ha, Pre-emergence (as headed), scale 0 to 10
[15] = Rate 2000 g/ha, Pre-emergence (as headed), scale 0 to 10
[16] = flood test, listed under Postemergence, Rate 250 g/ha, scale 0 to 10, 0 no effect, 10 complete control

Structure (SMILES): Cc1ccccc1-n1c(=O)on(C(=O)N(c2ccccc2)C(C)C)c1=O [Compound 36]
- Bedstraw plant response rating (bedstraw; [1]): 0
- Plant response rating, Bedstraw (bedstraw; [2]): 0
- Plant response rating, Bedstraw (bedstraw; [3]): 0
- Bedstraw plant response rating (bedstraw; [4]): 0
- Blackgrass plant response rating (blackgrass; [1]): 0
- Blackgrass plant response rating (blackgrass; [5]): 4
- Plant response rating, Blackgrass (blackgrass; [2]): 4
- Plant response rating, Blackgrass (blackgrass; [3]): 5
- Plant response rating, Blackgrass (blackgrass; [6]): 6
- Blackgrass plant response rating (blackgrass; [4]): 7
- Blackgrass plant response rating (blackgrass; [7]): 3
- Blackgrass plant response rating (blackgrass; [8]): 6
- B. signalgrass plant response rating (surinam grass; [1]): 0
- B. signalgrass plant response rating (surinam grass; [5]): 0
- Plant response rating, B. signalgrass (surinam grass; [2]): 5
- Plant response rating, B. signalgrass (surinam grass; [3]): 8
- Plant response rating, B. signalgrass (surinam grass; [6]): 8
- B. signalgrass plant response rating (surinam grass; [4]): 8
- B. signalgrass plant response rating (surinam grass; [7]): 0
- B. signalgrass plant response rating (surinam grass; [8]): 4
- Cocklebur plant response rating (cocklebur; [9]): 0
- Cocklebur plant response rating (cocklebur; Rate 250 g/ha, scale 0 to 10, 0 no effect, 10 complete control): 0
- Plant response rating, Cocklebur (cocklebur; [9]): 0
- Plant response rating, Cocklebur (cocklebur; Rate 125 g/ha, scale 0 to 10 (0 no effect, 10 complete control)): 0
- Plant response rating, Cocklebur (cocklebur; Rate 250 g/ha, scale of 0 to 10 where 0 is no effect and 10 is complete control): 0
- Cocklebur plant response rating (cocklebur; Rate 125 g/ha, scale 0 to 10, 0 no effect, 10 complete control): 0
- Cocklebur plant response rating (cocklebur; Rate 500 g/ha, 0 to 10 scale (0 no effect, 10 complete control)): 4
- Corn plant response rating (corn; [1]): 0
- Corn plant response rating (corn; [5]): 0
- Plant response rating, Corn (corn; [2]): 0
- Plant response rating, Corn (corn; [3]): 0
- Plant response rating, Corn (corn; [6]): 0
- Corn plant response rating (corn; [4]): 0
- Corn plant response rating (corn; [7]): 0
- Corn plant response rating (corn; [8]): 0
- Crabgrass plant response rating (crabgrass; [1]): 3
- Crabgrass plant response rating (crabgrass; [5]): 3
- Plant response rating, Crabgrass (crabgrass; [2]): 8
- Plant response rating, Crabgrass (crabgrass; [3]): 9
- Plant response rating, Crabgrass (crabgrass; [6]): 9
- Crabgrass plant response rating (crabgrass; [4]): 10
- Crabgrass plant response rating (crabgrass; [7]): 3
- Crabgrass plant response rating (crabgrass; [8]): 8
- Giant foxtail plant response rating (giant foxtail; [1]): 0
- Giant foxtail plant response rating (giant foxtail; [5]): 3
- Plant response rating, Giant foxtail (giant foxtail; [2]): 10
- Plant response rating, Giant foxtail (giant foxtail; [3]): 10
- Plant response rating, Giant foxtail (giant foxtail; [6]): 10
- Giant foxtail plant response rating (giant foxtail; [4]): 10
- Giant foxtail plant response rating (giant foxtail; [7]): 3
- Giant foxtail plant response rating (giant foxtail; [8]): 3
- Morningglory plant response rating (morningglory; [1]): 4
- Morningglory plant response rating (morningglory; [5]): 9
- Plant response rating, Morningglory (morningglory; [2]): 0
- Plant response rating, Morningglory (morningglory; [3]): 0
- Plant response rating, Morningglory (morningglory; [6]): 0
- Morningglory plant response rating (morningglory; [4]): 0
- Morningglory plant response rating (morningglory; [7]): 9
- Morningglory plant response rating (morningglory; [8]): 9
- Redroot pigweed plant response rating (pigweed; [1]): 2
- Redroot pigweed plant response rating (pigweed; [5]): 7
- Plant response rating, Redroot pigweed (pigweed; [2]): 0
- Plant response rating, Redroot pigweed (pigweed; [3]): 0
- Plant response rating, Redroot pigweed (pigweed; [6]): 6
- Redroot pigweed plant response rating (pigweed; [4]): 7
- Redroot pigweed plant response rating (pigweed; [7]): 5
- Redroot pigweed plant response rating (pigweed; [8]): 7
- Rape plant response rating (rape; [1]): 0
- Rape plant response rating (rape; [5]): 0
- Plant response rating, Rape (rape; [2]): 0
- Plant response rating, Rape (rape; [3]): 0
- Plant response rating, Rape (rape; [6]): 0
- Rape plant response rating (rape; [4]): 3
- Rape plant response rating (rape; [7]): 0
- Rape plant response rating (rape; [8]): 0
- Sugarbeets plant response rating (sugar beet; [1]): 0
- Sugarbeets plant response rating (sugar beet; [5]): 0
- Plant response rating, Sugarbeets (sugar beet; [2]): 0
- Plant response rating, Sugarbeets (sugar beet; [3]): 0
- Plant response rating, Sugarbeets (sugar beet; [6]): 0
- Sugarbeets plant response rating (sugar beet; [4]): 5
- Sugarbeets plant response rating (sugar beet; [7]): 0
- Velvetleaf plant response rating (velvetleaf; [1]): 0
- Velvetleaf plant response rating (velvetleaf; [5]): 0
- Plant response rating, Velvetleaf (velvetleaf; [2]): 0
- Plant response rating, Velvetleaf (velvetleaf; [3]): 0
- Plant response rating, Velvetleaf (velvetleaf; [6]): 0
- Velvetleaf plant response rating (velvetleaf; [4]): 0
- Velvetleaf plant response rating (velvetleaf; [7]): 0
- Wild oats plant response rating (wild oat; [1]): 0
- Wild oats plant response rating (wild oat; [5]): 0
- Plant response rating, Wild oats (wild oat; [3]): 2
- Plant response rating, Wild oats (wild oat; [6]): 6
- Wild oats plant response rating (wild oat; [4]): 7
- Wild oats plant response rating (wild oat; [7]): 0
- Rice plant response rating (rice; [1]): 0
- Rice plant response rating (rice; [10]): 0
- Rice plant response rating (rice; [11]): 0
- Rice plant response rating (rice; [12]): 2
- Plant response rating, Rice (rice; [13]): 0
- Rice plant response rating (rice; [14]): 0
- Rice plant response rating (rice; [15]): 0
- Rice plant response rating (rice; [16]): 0
- S. Flatsedge plant response rating (smallflower flatsedge; [1]): 0
- S. Flatsedge plant response rating (smallflower flatsedge; Pre-emergence, Rate 1000 g/ha, scale 0 to 10 (0 no effect, 10 complete control)): 0
- S. Flatsedge plant response rating (smallflower flatsedge; [10]): 0
- S. Flatsedge plant response rating (smallflower flatsedge; [11]): 0
- Plant response rating, S. Flatsedge (smallflower flatsedge; [13]): 0
- S. Flatsedge plant response rating (smallflower flatsedge; [15]): 0
- S. Flatsedge plant response rating (smallflower flatsedge; [16]): 0
- Barnyardgrass plant response rating (bamyardgrass; [1]): 0
- Barnyardgrass plant response rating (bamyardgrass; [10]): 0
- Barnyardgrass plant response rating (bamyardgrass; [11]): 0
- Barnyardgrass plant response rating (bamyardgrass; [12]): 5
- Plant response rating, Barnyardgrass (bamyardgrass; [13]): 0
- Barnyardgrass plant response rating (bamyardgrass; [14]): 0
- Barnyardgrass plant response rating (bamyardgrass; Rate 2000 g/ha, Pre-emergence (as headed), scale 0 to 10, 0 no effect, 10 complete control): 0
- Barnyardgrass plant response rating (bamyardgrass; [16]): 2
